Results: paper PMC8232266, “Lanolin-Based Synthetic Membranes for Transdermal Permeation and Penetration Drug Delivery Assays” (Membranes, 2021)
“Also recorded” adds a separate entry of the source. Like-named read-outs stand apart in the source and are kept apart here. Marks after values point to notes of the source that are not given here.

Columns and labels:
[1] = Infinite-dose kinetic permeation assay, vertical Franz diffusion cells, Nuclepore membrane; type: in vitro ADME; conditions: NP, DS 3% / LIDO 2% in PG; for J (flux): Higuchi model
From the text: (§1) Lastly, the entire system was clamped shut.

[2] = Infinite-dose kinetic permeation assay, vertical Franz diffusion cells, 5% SEL lanolin membrane; type: in vitro ADME
Procedure: (§2) For the preparation of the membranes, the procedure described by Pullmannová, et al. was followed. […] Next, 300 µL of the lipid solution was spread onto the pre-weighed NP membranes (≈15 mg lanolin) in a three-step process. The solvent was then evaporated under a stream of N2. The lipid membranes prepared were vacuum-dried over […] in a desiccator and were stored in a fridge at 5 °C for 24 h. Prior to use, the lanolin-based membranes were then heated to 75 °C, equilibrated for 10 min, and then cooled down slowly (~3 h) to 32 °C. The last part of the cooling-heating cycle was incubation for 24 h at 32 °C. Using a skin pHmeter (Sebumeter pH 900, Courage + Khazaka, Cologne, Germany), the pH of the membranes was determined.
as §1

[3] = Infinite-dose kinetic permeation assay, vertical Franz diffusion cells, 5% WEL lanolin membrane; type: in vitro ADME; conditions: DS 3% / LIDO 2% in PG; for J (flux): Ord 0 model
Procedure: as §2, §1

[4] = Finite-dose penetration test, Franz diffusion cells, Nuclepore-SEL membrane; type: in vitro ADME; conditions: finite dose 20 µL, 24 h, Figure 1
[5] = infinite dose

| Kinetics of Release (best-fit model) ([2]; DS 3% / LIDO 2% in PG) | J (flux) ([2]; Ord 0 model, DS 3% in PG) | Kinetics of Release (best-fit model) ([5]; SKIN, DS 3% / LIDO 2% in PG) | J (flux) ([5]; SKIN, Ord 0 model, DS 3% / LIDO 2% in PG) | permeability (percentage permeated through the skin) ([5]; pig skin, at 30 h) | SMILES | Kinetics of Release (best-fit model) [1] | J (flux) [1] | J (flux) ([2]; Higuchi model, LIDO 2% in PG) | J (flux) [3] | Kinetics of Release (best-fit model) ([3]; listed as DS) | permeation through Nuclepore-SEL membrane compared with skin [4] |
| --- | --- | --- | --- | --- | --- | --- | --- | --- | --- | --- | --- |
|  |  |  |  |  | CCN(CC)CC(=O)Nc1c(C)cccc1C [Lidocaine, lidocaine] | Higuchi | 1360.27 * µg/cm^2/h^½ | 343.05 * µg/cm^2/h^½ | 4.85 µg/cm^2/h |  |  |
| Ord 0 | 30.40 * µg/cm^2/h | Ord 0 | 3.94 µg/cm^2/h | 0.83 ± 0.42% | O=C(O)Cc1ccccc1Nc1c(Cl)cccc1Cl [Diclofenac Sodium, Diclofenac sodium] | Higuchi | 2307.12 * µg/cm^2/h^½ |  | 6.18 µg/cm^2/h | zero-order kinetics; also recorded: Ord 0 | insignificant difference compared with the skin |
